From ChEMBL document CHEMBL3588743, “Cell-based and virtual fragment screening for adrenergic α2C receptor agonists” (Bioorg Med Chem, 2015) come the findings set out here.

For assay [1], the target named is T1, Alpha-2C adrenergic receptor (Homo sapiens) (UniProt P18825).
T1 sequence (whole entry): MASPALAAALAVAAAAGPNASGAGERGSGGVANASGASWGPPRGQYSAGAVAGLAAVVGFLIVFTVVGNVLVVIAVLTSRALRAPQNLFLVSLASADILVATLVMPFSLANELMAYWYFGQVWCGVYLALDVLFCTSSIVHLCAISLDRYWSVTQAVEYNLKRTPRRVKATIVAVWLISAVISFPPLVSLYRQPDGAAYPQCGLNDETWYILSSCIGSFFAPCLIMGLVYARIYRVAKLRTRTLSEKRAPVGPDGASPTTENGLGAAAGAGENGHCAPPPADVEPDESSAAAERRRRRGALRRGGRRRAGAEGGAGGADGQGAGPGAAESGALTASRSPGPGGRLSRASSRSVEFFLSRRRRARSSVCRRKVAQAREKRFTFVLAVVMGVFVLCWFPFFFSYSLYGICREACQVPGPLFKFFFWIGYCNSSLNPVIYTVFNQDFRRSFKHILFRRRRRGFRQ
Nature of the assay: Agonist activity at recombinant human alpha2c adrenergic receptor expressed in CHOK1 cells co-expressing Gqi5 assessed as induction of cytoplasmic calcium mobilization measured for 40 secs by fluorometric analysis relative to UK14304. It is filed as functional, cell-based. To be noted: CHO-K1.

Assay [2] addresses T2, Alpha-2C adrenergic receptor (Homo sapiens, UniProt P18825).
T2 sequence (P18825 whole entry): T1 sequence (whole entry)
Nature of the assay: Agonist activity at recombinant human alpha2c adrenergic receptor expressed in CHOK1 cells co-expressing Gqi5 assessed as induction of cytoplasmic calcium mobilization measured for 40 secs by fluorometric analysis. The format is functional, cell-based, CHO-K1.

Assay [3] has as its target T1, Alpha-2C adrenergic receptor (Homo sapiens). Description: (§1) Displacement of [3H]-UK14304 from recombinant human alpha2c adrenergic receptor expressed in CHOK1 cell membranes after 30 mins by scintillation counting analysis. The conditions noted are these: CHO-K1.
The target of assay [4] is T2, Alpha-2C adrenergic receptor. The description is as §1. Also noted: species or system CHO-K1.
The target in assay [5] is Somatostatin receptor type 4 (Homo sapiens) (UniProt P31391). Description: Agonist activity at recombinant human sst4 receptor expressed in CHOK1 cells co-expressing Galpha16 assessed as induction of cytoplasmic calcium mobilization at 250 uM measured for 40 secs by fluorometric analysis relative to L-803087. The format is functional, cell-based. The conditions noted are these: CHO-K1.

Where only a bound is given, the exact number is not on record here.

Somatostatin receptor type 4 (Homo sapiens), sequence (P31391 whole entry): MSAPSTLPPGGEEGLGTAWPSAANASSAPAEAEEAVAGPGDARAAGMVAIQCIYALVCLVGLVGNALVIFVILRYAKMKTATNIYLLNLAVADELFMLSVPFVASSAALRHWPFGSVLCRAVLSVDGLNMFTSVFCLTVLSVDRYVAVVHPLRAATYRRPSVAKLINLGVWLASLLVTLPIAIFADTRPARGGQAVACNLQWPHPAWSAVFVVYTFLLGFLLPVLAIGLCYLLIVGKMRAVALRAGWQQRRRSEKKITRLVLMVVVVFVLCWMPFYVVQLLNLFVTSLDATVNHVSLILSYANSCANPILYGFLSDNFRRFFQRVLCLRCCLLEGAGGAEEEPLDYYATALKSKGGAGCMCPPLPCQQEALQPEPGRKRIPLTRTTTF

In the case of `Brc1cccc(Cn2ccnc2)c1`, the Emax in assay [1] is over 105%; in assay [3] it was 97%. The EC50 in assay [2] was over 501 µM. Moreover, in assay [4], the Ki was 1.17 µM.
For the molecule `N#Cc1cccc(-c2ccccc2CCN)c1`, the Emax was over 75% in assay [1] and 100% in assay [3]. Moreover, in assay [2], the EC50 is over 501 µM. For the same molecule, the Ki in assay [4] was 0.0117 µM.
For the molecule `CN1CCN(c2ccccc2N)CC1`, in assay [4], the Ki was 0.24 µM.
Regarding `NCC(=O)Nc1ccccc1Oc1ccccc1`, the Emax was 93% in assay [1] and 81% in assay [3]. The EC50 in assay [2] was 631 µM. The Ki in assay [4] is 15.5 µM.
Consider `c1ccc(-c2nc(CNCc3cccnc3)c[nH]2)cc1`, for which the Emax in assay [1] stood at 87%; in assay [3] it was 102%. Further, in assay [2], the EC50 was 479 µM. For the same molecule, in assay [4], the Ki was 5.25 µM.
As to `Oc1cc2c(cc1O)C(c1ccccc1)CNCC2` (configuration not stated) [SKF-38393], the Emax was found to be 70% in assay [1] and 92% in assay [3]. Moreover, in assay [2], the EC50 is 1.38 µM. For the same molecule, the Ki in assay [4] was 0.0832 µM.
As for `CN1CCN(c2ccc(N)cc2)CC1`, the Activity in assay [5] is under 10%. Moreover, the figures for the Emax in assay [1] and in assay [3] were over 36% and 100%, respectively. Moreover, the EC50 in assay [2] is over 501 µM. The Ki in assay [4] is 1.51 µM.
With `OC(Cn1ccnc1)c1ccc(Cl)cc1Cl` (configuration not stated), the Emax in assay [1] is 123%; in assay [3], 78%. Further, in assay [2], the EC50 was 339 µM. The Ki in assay [4] was 15.1 µM.
Consider `c1ccc2c(CC3=NCCN3)cccc2c1` [NAPHAZOLINE], for which the Emax in assay [1] came to 55%; in assay [3], 102%. The EC50 in assay [2] is 0.055 µM. Further, the Ki in assay [4] was 0.00229 µM.
With `NCCCN(C(=O)c1ccccc1)c1ccccc1`, the values for the Emax in assay [1] and in assay [3] were over 51% and 104%, respectively. Besides, the EC50 in assay [2] is over 501 µM. The Ki in assay [4] is 8.32 µM.
Turning to `COc1ccccc1OCC1CNCCO1` (configuration not stated), the values for the Emax in assay [1] and in assay [3] were over 77% and 81%, respectively. In addition, the EC50 in assay [2] is over 501 µM. Moreover, the Ki in assay [4] is 10.5 µM.
For `CCNCC(=O)N1CCn2cccc2C1c1cccc(Cl)c1` (configuration not stated), the figures for the maximum response (Emax) in assay [1] and in assay [3] were over 88% and 99%, respectively. Further, in assay [2], the EC50 is over 501 µM. Moreover, in assay [4], the Ki was 7.24 µM.
The like results for `Cc1ccccc1NCc1cnc[nH]1` were, in that order, 60%, 100%, 0.174 µM and 0.0724 µM.
As to `O=C(CCC1CCCC1)N1CCSC12CCNCC2`, the Emax in assay [1] was over 82%; in assay [3], 81%. Further, the EC50 in assay [2] is over 501 µM. For the same molecule, the Ki in assay [4] was 15.5 µM.
As for `Cc1ccccc1NCc1ccncc1`, the Emax is over 66% in assay [1] and 92% in assay [3]. The concentration giving a half-maximal response (EC50) in assay [2] is over 501 µM. Moreover, the Ki in assay [4] is 0.537 µM.
Regarding `CN1CCN(c2cccc(N)c2)CC1`, the Ki in assay [4] is 0.562 µM.
As to `c1cncc(-c2ccccc2NCc2ccncc2)c1`, the Emax came out at 56% in assay [1] and 98% in assay [3]. In addition, the EC50 in assay [2] was 3.47 µM. Moreover, the Ki in assay [4] is 1.07 µM.
On to `NCCSc1nc2ccccc2o1`, for which the figures for the maximal response (Emax) in assay [1] and in assay [3] were 49% and 92%, respectively. In addition, the EC50 in assay [2] was 3.16 µM. In assay [4], the Ki was 0.646 µM.
As for `Cc1ccccc1Cn1ccnc1CNC(C)C`, the Emax was 55% in assay [1] and 102% in assay [3]. For the same molecule, in assay [2], the EC50 was 148 µM. Moreover, the Ki in assay [4] is 22.4 µM.
Turning to `COc1ccc(C2NCCCn3cccc32)cc1` (configuration not stated), in assay [4], the Ki was 13.8 µM.
